Data as given in PMC4522185 (ChemistryOpen, 2015).
Converted amounts (≈) assume the structure as drawn. Read-outs that look alike come from different tables or passages of the source.

What was measured:
[1] = target: human 20S proteasome (chymotrypsin-like activity, with PA28 activator) (Homo sapiens, UniProt P28074); experiment: fluorogenic suc-LLVY-AMC cleavage; assay type: biochemical
[2] = target: T1, Mtb 20S open-gate proteasome (Mycobacterium tuberculosis, UniProt P9WHT9); experiment: biochemical
T1 sequence (P9WHT9 whole entry): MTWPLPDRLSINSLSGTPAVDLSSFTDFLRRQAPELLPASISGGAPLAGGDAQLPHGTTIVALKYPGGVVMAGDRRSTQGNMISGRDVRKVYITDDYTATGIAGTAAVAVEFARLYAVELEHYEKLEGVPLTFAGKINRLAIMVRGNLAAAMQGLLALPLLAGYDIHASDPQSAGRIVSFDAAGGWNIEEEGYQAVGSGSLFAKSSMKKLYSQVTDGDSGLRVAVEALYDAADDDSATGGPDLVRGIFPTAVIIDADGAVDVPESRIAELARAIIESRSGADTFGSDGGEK
T1 sequence (P9WHU1 whole entry partner): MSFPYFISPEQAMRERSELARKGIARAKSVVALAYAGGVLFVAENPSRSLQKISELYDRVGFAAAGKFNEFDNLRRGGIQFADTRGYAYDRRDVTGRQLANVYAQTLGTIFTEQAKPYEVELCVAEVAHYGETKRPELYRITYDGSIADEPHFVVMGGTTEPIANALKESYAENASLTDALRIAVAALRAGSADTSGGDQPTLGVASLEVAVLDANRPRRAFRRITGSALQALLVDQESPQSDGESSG

physchem [3] = conditions: ch3cn+pbs (1+1), pH 7.4
physchem [4] = conditions: pbs, pH 7.4, aqueous buffer
[5] = target: T1, Mtb 20S open-gate proteasome; experiment: biochemical; remark: listed apart in the source
physchem [6] = conditions: pbs, pH 7.4, aqueous buffer; remark: listed apart in the source
physchem [7] = conditions: ch3cn+pbs (1+1), pH 7.4; remark: listed apart in the source
physchem [8] = conditions: ch3cn+pbs (1+1), pH 7.4; remark: listed apart in the source

human 20S proteasome (chymotrypsin-like activity, with PA28 activator), sequence (P28074 60-263): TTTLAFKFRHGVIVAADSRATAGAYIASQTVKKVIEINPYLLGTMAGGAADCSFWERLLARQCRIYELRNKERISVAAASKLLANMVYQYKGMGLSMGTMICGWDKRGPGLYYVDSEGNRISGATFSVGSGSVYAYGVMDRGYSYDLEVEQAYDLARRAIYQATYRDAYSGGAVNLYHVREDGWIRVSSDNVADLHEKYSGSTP
human 20S proteasome (chymotrypsin-like activity, with PA28 activator), sequence (P25786 whole entry partner): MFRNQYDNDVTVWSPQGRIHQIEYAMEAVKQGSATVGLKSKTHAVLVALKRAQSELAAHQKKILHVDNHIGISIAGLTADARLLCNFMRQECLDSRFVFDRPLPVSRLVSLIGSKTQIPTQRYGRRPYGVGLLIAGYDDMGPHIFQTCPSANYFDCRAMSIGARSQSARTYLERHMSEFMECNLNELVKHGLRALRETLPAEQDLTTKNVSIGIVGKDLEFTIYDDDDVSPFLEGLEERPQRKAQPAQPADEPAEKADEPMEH

| SMILES | IC50 [1] | IC50 [2] | remaining at 24 h, 50 µM (physchem [3]) | also measured |
| --- | --- | --- | --- | --- |
| CCOC(=O)c1ccc(/C=C/c2nsc(=O)o2)cc1 [compound 33, (E)-Ethyl 4-(2-(2-oxo-1,3,4-oxathiazol-5-yl)vinyl)benzoate] | > 100 µM | 0.475 µM | 91.1% | – |
| Cc1ccc(/C=C/c2nsc(=O)o2)cc1 [compound 30, (E)-5-(4-Methylstyryl)-1,3,4-oxathiazol-2-one] | > 100 µM | 1 µM | 96% | – |
| O=c1oc(Cc2ccccc2)ns1 [compound 9, 5-Benzyl-1,3,4-oxathiazol-2-one] | 1.9 µM | – | – | – |
| O=c1oc(/C=C/c2ccccn2)ns1 [compound 54, (E)-5-(2-(Pyridin-2-yl)vinyl)-1,3,4-oxathiazol-2-one] | – | – | – | solubility at 18 h (physchem [4]): 64.6 µM (≈ 13.3 µg/mL) |
| O=c1oc(/C=C/c2ccccc2)ns1 [compound 17, (E)-5-Styryl-1,3,4-oxathiazol-2-one] | > 100 µM | – | – | IC50 [5]: 0.42 µM; solubility at 18 h (physchem [6]): 19.1 µM (≈ 3.92 µg/mL); remaining at 24 h, 50 µM (physchem [7]): 38.7% |
| O=c1oc(/C=C/c2ccc(Cl)cc2)ns1 [compound 39, (E)-5-(4-Chlorostyryl)-1,3,4-oxathiazol-2-one] | > 100 µM | 0.565 µM | 98.2% | – |
| O=c1oc(Cc2ccccc2C(F)(F)F)ns1 [compound 13, 5-(2-(Trifluoromethyl)benzyl)-1,3,4-oxathiazol-2-one] | 8.7 µM | – | – | – |
| CCc1cccc(/C=C/c2nsc(=O)o2)c1 [compound 42, (E)-5-(3-Ethylstyryl)-1,3,4-oxathiazol-2-one] | 32.5 µM | 1.45 µM | 96.4% | – |
| COc1cccc(-c2nsc(=O)o2)c1 [compound 3, 5-(3-Methoxyphenyl)-1,3,4-oxathiazol-2-one] | 15 µM | – | – | – |
| C=Cc1nsc(=O)o1 [compound 21, 5-Vinyl-1,3,4-oxathiazol-2-one] | 9.1 µM | – | – | – |
| COc1cccc(-c2nsc(=O)o2)c1 [compound 3] | – | – | – | IC50 [5]: 0.665 µM; solubility at 18 h (physchem [6]): 30.9 µM (≈ 6.47 µg/mL); remaining at 24 h, 50 µM (physchem [7]): 15.4% |
| O=c1oc(-c2cnccn2)ns1 [compound 2] | – | – | – | IC50 [5]: 2.3 µM; solubility at 18 h (physchem [6]): 35.1 µM (≈ 6.36 µg/mL); remaining at 24 h, 50 µM (physchem [7]): 3.6% |
| O=C(c1ccccc1)c1nsc(=O)o1 [compound 19, 5-Benzoyl-1,3,4-oxathiazol-2-one] | 2.95 µM | – | – | IC50 [5]: 2.25 µM; solubility at 18 h (physchem [6]): 5.7 µM (≈ 1.18 µg/mL); remaining at 24 h, 50 µM (physchem [7]): 46.8% |
| O=c1oc(/C=C/c2ccccc2OC(F)(F)F)ns1 [compound 47, (E)-5-(2-(Trifluoromethoxy)styryl)-1,3,4-oxathiazol-2-one] | > 100 µM | – | 95.7% | – |
| CCOC(=O)c1ccccc1/C=C/c1nsc(=O)o1 [compound 48, (E)-Ethyl 2-(2-(2-Oxo-1,3,4-oxathiazol-5-yl)vinyl)benzoate] | > 100 µM | – | 97.7% | – |
| O=Cc1ccc(OCc2nsc(=O)o2)cc1 [compound 11, 4-((2-Oxo-1,3,4-oxathiazol-5-yl)methoxy)benzaldehyde] | > 100 µM | – | – | – |
| O=c1oc(/C=C/c2ccc([N+](=O)[O-])cc2)ns1 [compound 36, (E)-5-(4-Nitrostyryl)-1,3,4-oxathiazol-2-one] | 26 µM | 1.4 µM | 96.9% | – |
| CCCCCc1nsc(=O)o1 [compound 7, 5-Pentyl-1,3,4-oxathiazol-2-one] | > 100 µM | – | – | – |
| O=c1oc(C(O)c2ccccc2)ns1 (stereo not drawn) [compound 14, 5-(Hydroxy(phenyl)methyl)-1,3,4-oxathiazol-2-one] | 20 µM | – | – | – |
| CCOC(=O)c1cccc(/C=C/c2nsc(=O)o2)c1 [compound 44, (E)-Ethyl 3-(2-(2-Oxo-1,3,4-oxathiazol-5-yl)vinyl)benzoate] | > 100 µM | 9.9 µM | 96% | – |
| O=Cc1ccc(/C=C/c2nsc(=O)o2)cc1 [compound 38, (E)-4-(2-(2-Oxo-1,3,4-oxathiazol-5-yl)vinyl)benzaldehyde] | 32.5 µM | 0.695 µM | 91.4% | – |
| O=c1oc(/C=C/c2c[nH]c3ccccc23)ns1 [compound 57, 57] | 5 µM | – | – | solubility at 18 h (physchem [4]): 4.1 µM (≈ 1 µg/mL) |
| CC(C)c1ccc(/C=C/c2nsc(=O)o2)cc1 [compound 29, (E)-5-(4-Isopropylstyryl)-1,3,4-oxathiazol-2-one] | 14.5 µM | 1.7 µM | 99.8% | – |
| COc1ncccc1/C=C/c1nsc(=O)o1 [compound 50, (E)-5-(2-(2-Methoxypyridin-3-yl)vinyl)-1,3,4-oxathiazol-2-one] | 29.5 µM | – | – | solubility at 18 h (physchem [4]): 2.1 µM (≈ 0.496 µg/mL); remaining at 24 h, 50 µM (physchem [8]): 97.7% |
| O=c1oc(/C(=C/c2ccccc2)c2ccccc2)ns1 [compound 23, (E)-5-(1,2-Diphenylvinyl)-1,3,4-oxathiazol-2-one] | 14 µM | – | – | – |
| CCc1ccc(/C=C/c2nsc(=O)o2)cc1 [compound 31, (E)-5-(4-Ethylstyryl)-1,3,4-oxathiazol-2-one] | > 100 µM | 1.08 µM | 98.2% | – |

| SMILES | IC50 [1] | IC50 [2] | remaining at 24 h, 50 µM (physchem [3]) | also measured |
| --- | --- | --- | --- | --- |
| O=c1oc(CCCl)ns1 [compound 5, 5-(2-Chloroethyl)-1,3,4-oxathiazol-2-one] | > 100 µM | – | – | – |
| O=c1oc(/C=C/c2ccc(OC(F)(F)F)cc2)ns1 [compound 32, (E)-5-(4-(Trifluoromethoxy)styryl)-1,3,4-oxathiazol-2-one] | > 100 µM | 0.78 µM | 94.8% | – |
| O=c1oc(-c2cccc(F)c2)ns1 [compound 4, 5-(3-Fluorophenyl)-1,3,4-oxathiazol-2-one] | 11 µM | – | – | – |
| O=c1oc(/C=C/C(F)(F)F)ns1 [compound 22, (E)-5-(3,3,3-Trifluoroprop-1-en-1-yl)-1,3,4-oxathiazol-2-one] | > 100 µM | – | – | solubility at 18 h (physchem [6]): 44.1 µM (≈ 8.69 µg/mL); remaining at 24 h, 50 µM (physchem [7]): 79.9% |
| Cc1ccccc1/C=C/c1nsc(=O)o1 [compound 45, (E)-5-(2-Methylstyryl)-1,3,4-oxathiazol-2-one] | > 100 µM | – | 94% | – |
| O=c1nc2c(/C=C/c3nsc(=O)o3)cccn2s1 [compound 56, (E)-5-(2-(2-Oxo-2 H-[1,2,4]thiadiazolo[2,3-a]pyridin-8-yl)vinyl)-1,3,4-oxathiazol-2-one] | – | – | – | solubility at 18 h (physchem [4]): 2.4 µM (≈ 0.67 µg/mL) |
| CCc1ccccc1/C=C/c1nsc(=O)o1 [compound 46, (E)-5-(2-Ethylstyryl)-1,3,4-oxathiazol-2-one] | > 100 µM | – | 98% | – |
| Cc1cccc(/C=C/c2nsc(=O)o2)c1 [compound 41, (E)-5-(3-Methylstyryl)-1,3,4-oxathiazol-2-one] | 39 µM | 1.6 µM | 98.1% | – |
| O=c1oc(C2CC2)ns1 [compound 6, 5-Cyclopropyl-1,3,4-oxathiazol-2-one] | > 100 µM | – | – | – |
| O=c1oc(-c2cnccn2)ns1 [compound 2, 5-(Pyrazin-2-yl)-1,3,4-oxathiazol-2-one] | 4.5 µM | – | – | – |
| O=c1onc(/C=C/c2ccccc2)o1 [compound 25] | – | – | – | solubility at 18 h (physchem [6]): 12.3 µM (≈ 2.33 µg/mL) |
| N#Cc1ccc(/C=C/c2nsc(=O)o2)cc1 [compound 37, (E)-4-(2-(2-Oxo-1,3,4-oxathiazol-5-yl)vinyl)benzonitrile] | 41.5 µM | 0.495 µM | 95.4% | – |
| O=c1oc(Cc2cccc3ccccc23)ns1 [compound 12, 5-(Naphthalen-1-ylmethyl)-1,3,4-oxathiazol-2-one] | > 100 µM | – | – | – |
| CO[C@H](c1ccccc1)c1nsc(=O)o1 [compound 16, (R)-5-(Methoxy(phenyl)methyl)-1,3,4-oxathiazol-2-one] | 5.8 µM | – | – | – |
| O=c1onc(-c2ccccc2)o1 [compound 24, 3-Phenyl-1,4,2-dioxazol-5-one] | > 100 µM | – | – | solubility at 18 h (physchem [6]): 7.6 µM (≈ 1.24 µg/mL); remaining at 24 h, 50 µM (physchem [7]): 8.5% |
| COc1cccc(Cc2nsc(=O)o2)c1 [compound 10, 5-(3-Methoxybenzyl)-1,3,4-oxathiazol-2-one] | > 100 µM | – | – | – |
| O=c1oc(CCc2ccccc2)ns1 [compound 15, 5-Phenethyl-1,3,4-oxathiazol-2-one] | 6.7 µM | – | – | – |
| O=c1oc(/C=C/c2cc(Cl)ccc2Cl)ns1 [compound 40, (E)-5-(2,5-Dichlorostyryl)-1,3,4-oxathiazol-2-one] | 50 µM | 0.785 µM | 98.5% | – |
| O=c1oc(-c2ccccc2)ns1 [compound 1, 5-Phenyl-1,3,4-oxathiazol-2-one] | 6.2 µM | – | – | – |
| O=c1oc(CF)ns1 [compound 8, 5-(Fluoromethyl)-1,3,4-oxathiazol-2-one] | 1.4 µM | – | – | – |
| O=c1oc(/C=C/c2ccc(C(F)(F)F)cc2)ns1 [compound 18, (E)-5-(4-(Trifluoromethyl)styryl)-1,3,4-oxathiazol-2-one] | > 100 µM | – | – | solubility at 18 h (physchem [6]): 0.1 µM (≈ 0.0273 µg/mL) |
| O=c1oc(/C=C/c2cccc(OC(F)(F)F)c2)ns1 [compound 43, (E)-5-(3-(Trifluoromethoxy)styryl)-1,3,4-oxathiazol-2-one] | 39.5 µM | 1.8 µM | 96.2% | – |
| COC(=O)c1ccc(/C=C/c2nsc(=O)o2)cc1 [compound 35, (E)-Methyl 4-(2-(2-oxo-1,3,4-oxathiazol-5-yl)vinyl)benzoate] | 27.5 µM | 0.415 µM | 97.3% | – |
| O=C(c1ccccc1)c1ccc(/C=C/c2nsc(=O)o2)cc1 [compound 34, (E)-5-(4-Benzoylstyryl)-1,3,4-oxathiazol-2-one] | 87 µM | 1.19 µM | 96.1% | – |
| O=c1oc(/C=C/c2cccnc2)ns1 [compound 55, (E)-5-(2-(Pyridin-3-yl)vinyl)-1,3,4-oxathiazol-2-one] | – | – | – | solubility at 18 h (physchem [4]): 70.6 µM (≈ 14.6 µg/mL) |
